Data from ChEMBL document CHEMBL1201862, “PubChem BioAssay data set” (2004).
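Tested at 5 concentrations; 48 h exposure; 96-well plates; endpoints linearly interpolated, else capped at highest concentration. GI50: concentration for 50% inhibition of growth.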 Calls of active or inactive are those of the source. No stated cut-off is given here; in the data, active = GI50 up to about 1.1 µM and inactive = higher.

Columns and labels:
Test in all cases: DTP human tumour cell line panel, 48 h
[1] = test system: CCRF-CEM
[2] = test system: HCT-116
[3] = test system: HCT-15
[4] = test system: HL-60
[5] = test system: HOP-92
[6] = test system: LOX IMVI
[7] = test system: Malme-3M
[8] = test system: NCI-H460
[9] = test system: OVCAR-3
[10] = test system: OVCAR-5
[11] = test system: OVCAR-8
[12] = test system: PC-3
[13] = test system: SF-268
[14] = test system: SF-295
[15] = test system: SF-539
[16] = test system: SK-MEL-2
[17] = test system: SK-MEL-5
[18] = test system: SNB-75
[19] = test system: SR
[20] = test system: UO-31

Structure (SMILES) | GI50 [1] | GI50 [2] | GI50 [3] [µM] | GI50 [4] | GI50 [5] | GI50 [6] | GI50 [7] | GI50 [8] | GI50 [9] | GI50 [10] | GI50 [11] | GI50 [12] | GI50 [13] | GI50 [14] | GI50 [15] | GI50 [16] | GI50 [17] | GI50 [18] | GI50 [19] | GI50 [20]
O=C1c2ccccc2C(=O)N1CCCSc1ccccc1 | 38.5 µM (inactive) | 94.2 µM (inactive) | 92.7 | 75.7 µM (inactive) | > 100 µM (inactive) | > 100 µM (inactive) | > 100 µM (inactive) | 90.6 µM (inactive) | 28.8 µM (inactive) | > 100 µM (inactive) | > 100 µM (inactive) | 92 µM (inactive) | > 100 µM (inactive) | 22.6 µM (inactive) | > 100 µM (inactive) | > 100 µM (inactive) | 32.7 µM (inactive) | 64.7 µM (inactive) | 31.8 µM (inactive) | 60.5 µM (inactive)
C/C=C(\C)C(O)C(C)C(O)C/C=C(C)/C=C(\C)C/C(C)=C/C/C=C(\C)C(O)C(C)c1ccc(CCC)c(=O)o1 (stereo not drawn) | 61.8 µM (inactive) | 0.544 µM (active) | 1.17 | > 100 µM (inactive) | 16.6 µM (inactive) | 6.68 µM (inactive) | 9.25 µM (inactive) | 5.18 µM (inactive) | 12.1 µM (inactive) | 19.8 µM (inactive) | 12.9 µM (inactive) | 3.5 µM (inactive) | 15.8 µM (inactive) | 0.349 µM (active) | 14.1 µM (inactive) | 23.8 µM (inactive) | 1.14 µM (inactive) | 10.8 µM (inactive) | 18.8 µM (inactive) | 7.82 µM (inactive)
Cc1ccc(/N=N/NCCCCN/N=N/c2ccc(C)cc2)cc1 | 1 µM (active) | 65.8 µM (inactive) | 4.93 | 1.75 µM (inactive) | 25.3 µM (inactive) | 1.17 µM (inactive) | > 100 µM (inactive) | 12.5 µM (inactive) | > 100 µM (inactive) | > 100 µM (inactive) | 27.4 µM (inactive) | 4.22 µM (inactive) | 96.8 µM (inactive) | 8.22 µM (inactive) | > 100 µM (inactive) | > 100 µM (inactive) | 23.4 µM (inactive) | > 100 µM (inactive) | 17.5 µM (inactive) | 0.196 µM (active)
N[C@@H]1c2c(Br)sc(Br)c2C(=O)[C@H]1Br | 2.02 µM (inactive) | 17.3 µM (inactive) | 25.1 | 2.42 µM (inactive) | 17.5 µM (inactive) | 15.7 µM (inactive) | 21.7 µM (inactive) | 57.1 µM (inactive) | 30.6 µM (inactive) | > 82.4 µM (inactive) | 20.5 µM (inactive) | 37.2 µM (inactive) | 31.2 µM (inactive) | > 70.6 µM (inactive) | > 63.1 µM (inactive) | > 100 µM (inactive) | 2.6 µM (inactive) | > 100 µM (inactive) | 16.1 µM (inactive) | 27.9 µM (inactive)
O=C(O)c1nc2ccccc2nc1Nc1ccc(Cl)c(Cl)c1 | 17.8 µM (inactive) | 22.5 µM (inactive) | 13.1 | 25.8 µM (inactive) | 16.1 µM (inactive) | 28.8 µM (inactive) | 18.4 µM (inactive) | 13.6 µM (inactive) | 11.5 µM (inactive) | 39.6 µM (inactive) | 41.1 µM (inactive) | 32.6 µM (inactive) | 17.9 µM (inactive) | 17.3 µM (inactive) | 19.9 µM (inactive) | – | 15.7 µM (inactive) | 56.5 µM (inactive) | 47.9 µM (inactive) | 15.6 µM (inactive)
CC(C)(C)OC(=O)N1Cc2cc(O)ccc2C[C@H]1C(=O)O | > 100 µM (inactive) | > 100 µM (inactive) | > 100 | 0.137 µM (active) | > 100 µM (inactive) | > 100 µM (inactive) | > 100 µM (inactive) | > 100 µM (inactive) | > 100 µM (inactive) | > 100 µM (inactive) | > 100 µM (inactive) | > 100 µM (inactive) | > 100 µM (inactive) | > 100 µM (inactive) | > 100 µM (inactive) | > 100 µM (inactive) | > 100 µM (inactive) | > 100 µM (inactive) | > 100 µM (inactive) | –
O=C(CC(=O)N(C(=O)c1ccccc1)c1ccc(Cl)cc1)N/N=C\c1cc(/N=N/c2ccccc2Cl)ccc1O | 25.1 µM (inactive) | 75 µM (inactive) | 75.7 | 12.7 µM (inactive) | 23.5 µM (inactive) | > 100 µM (inactive) | > 100 µM (inactive) | > 100 µM (inactive) | 48 µM (inactive) | > 100 µM (inactive) | > 100 µM (inactive) | > 100 µM (inactive) | 47.1 µM (inactive) | 29.9 µM (inactive) | 34.8 µM (inactive) | – | – | 12.4 µM (inactive) | 17.9 µM (inactive) | 45.6 µM (inactive)
CC(C)(C)C(=O)C(N)C(=O)C(C)(C)C | > 100 µM (inactive) | > 100 µM (inactive) | > 100 | > 100 µM (inactive) | > 100 µM (inactive) | > 100 µM (inactive) | > 100 µM (inactive) | > 100 µM (inactive) | – | > 100 µM (inactive) | > 100 µM (inactive) | > 100 µM (inactive) | > 100 µM (inactive) | > 100 µM (inactive) | > 100 µM (inactive) | > 100 µM (inactive) | > 100 µM (inactive) | > 100 µM (inactive) | > 100 µM (inactive) | > 100 µM (inactive)
CC1CC[C@@]2(OC1)OC1C[C@H]3[C@@H]4CC=C5CC(OC6OC(CO)C(OC7OC(CO)C(O)C(OC8OCC(O)C(O)C8O)C7OC7OC(CO)C(O)C(O)C7O)C(O)C6O)CCC5(C)[C@H]4CCC3(C)C1[C@@H]2C (stereo partly drawn) | 5.16 µM (inactive) | 4.44 µM (inactive) | 14.9 | 4.9 µM (inactive) | > 25 µM (inactive) | 4.48 µM (inactive) | > 25 µM (inactive) | 5.52 µM (inactive) | 4.93 µM (inactive) | 8.51 µM (inactive) | 4.61 µM (inactive) | 4.06 µM (inactive) | 4.84 µM (inactive) | 7.11 µM (inactive) | 3.6 µM (inactive) | 11.7 µM (inactive) | 4.67 µM (inactive) | 7.69 µM (inactive) | 7.23 µM (inactive) | –
CCCn1cnc2c(SCc3ccc(Cl)cc3)nc(N)nc21 | 34.2 µM (inactive) | 19.4 µM (inactive) | 27.3 | 18.2 µM (inactive) | 44.5 µM (inactive) | 22 µM (inactive) | 26.9 µM (inactive) | 18.7 µM (inactive) | 17.2 µM (inactive) | 28.4 µM (inactive) | 40.1 µM (inactive) | 21.2 µM (inactive) | 36.3 µM (inactive) | 21.6 µM (inactive) | – | 18.4 µM (inactive) | 15.3 µM (inactive) | 21.9 µM (inactive) | 13.5 µM (inactive) | 5.85 µM (inactive)
